In patent US6914045B2, “Glycopeptide antibiotics” (Wyeth Holdings Corporation, priority 2001, dated 2005):
Converted amounts (≈) assume the structure as drawn. Numbered stars: 1 amine (or outer) side, 2 acyl side, 3 side chain; on linkers, the order of the positions; unused ones are H or OH. Square brackets hold non-standard residues; d marks the D form. Peptide text beside a SMILES is read from it. ξ: configuration not given here. X1 = N=C1NCC(C(O)C(N[*:1])C(=O)[*:2])N1C1OC(CO)C(O)C(O)C1O; ξEnduracididine(βξ-OH,4'ξ) = N=C1NCC(C(O)C(N)C(=O)O)N1; Tyr(3-NO2) = N[CH](Cc1ccc(O)c([N+](=O)[O-])c1)C(=O)O; ξPhe(βξ-Me) = CC(c1ccccc1)C(N)C(=O)O

How the values were obtained:
Test in all cases: in vitro antibacterial evaluation, MIC by broth dilution
Format in all cases: cell-based
Escherichia coli = details: broth dilution, 18 hours at 35° C.; for MIC Escherichia coli (ATCC 25922): strain ATCC 25922; for MIC Escherichia coli (GC 4559): strain GC 4559; for MIC Escherichia coli (GC 4560): strain GC 4560
Summary of the method: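 Broth dilution MIC per NCCLS M7-A2 in Mueller-Hinton II medium, inoculum 5×10^5 CFU/mL, antibiotic range 64-0.06 μg/mL. MIC taken as lowest concentration inhibiting growth.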

Enterococcus sp. = details: broth dilution, 18 hours at 35° C.; for MIC Enterococcus faecalis (ATCC 29212): strain ATCC 29212; for MIC Enterococcus faecalis (GC 2242): strain GC 2242; for MIC Enterococcus faecium (GC 2243): strain GC 2243; for MIC Enterococcus faecalis (GC 4552): strain GC 4552; for MIC Enterococcus faecalis (GC 4553): strain GC 4553; for MIC Enterococcus faecalis (GC 4554): strain GC 4554; for MIC Enterococcus faecium (GC 4556): strain GC 4556; for MIC Enterococcus faecium (GC 4557): strain GC 4557; for MIC Enterococcus avium (GC 4558): strain GC 4558
Summary of the method: (§1)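 MIC = lowest antibiotic concentration preventing visible growth; inoculum 5×10^5 CFU/mL; drug range 64-0.06 μg/mL; Muller-Hinton II […]; NCCLS M7-A2 guidance.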

Staphylococcus sp. = test system: Staphylococcus sp.
Summary of the method: as §1

Streptococcus sp. = details: broth dilution, 18 hours at 35° C.; for MIC Streptococcus agalactiae (GC 4564): strain GC 4564; for MIC Streptococcus pneumoniae (GC 4565): strain GC 4565
Summary of the method: as §1

For CC(=O)Nc1cc(CC2NC(=O)C(C(C)c3ccccc3)NC(=O)CNC(=O)C(CO)NC(=O)C(C(O)C3CNC(=N)N3C3OC(CO)C(O)C(O)C3O)NC(=O)C(C(O)C3CNC(=N)N3)NC2=O)ccc1O (stereo not drawn) [Example 13, Cyclo[-glycyl-β-methylphenylalanyl-3-acetamidotyrosyl-3-(2-iminoimidazolidin-4-yl)seryl-3-(3-hexopyranosyl-2-iminoimidazolodin-4-yl)serylseryl]], the “MIC Escherichia coli (ATCC 25922)” value (Escherichia coli) was greater than 64 µg/mL, the “MIC Escherichia coli (GC 4559)” value (Escherichia coli) was greater than 64 µg/mL and the “MIC Escherichia coli (GC 4560)” value (Escherichia coli) was 32 µg/mL (≈ 31.1 µM). The “MIC Enterococcus faecalis (ATCC 29212)” value (Enterococcus sp.) was greater than 64 µg/mL, the “MIC Enterococcus faecalis (GC 2242)” value (Enterococcus sp.) was 64 µg/mL (≈ 62.3 µM) and the “MIC Enterococcus faecium (GC 2243)” value (Enterococcus sp.) was 64 µg/mL (≈ 62.3 µM). The “MIC Enterococcus faecalis (GC 2691)” value (Enterococcus sp.; strain GC 2691) was greater than 64 µg/mL, the “MIC Enterococcus faecalis (GC 3059)” value (Enterococcus sp.; strain GC 3059) was greater than 64 µg/mL and the “MIC Enterococcus faecalis (GC 4552)” value (Enterococcus sp.) was greater than 64 µg/mL. The “MIC Enterococcus faecalis (GC 4553)” value (Enterococcus sp.) was 64 µg/mL (≈ 62.3 µM), the “MIC Enterococcus faecalis (GC 4554)” value (Enterococcus sp.) was greater than 64 µg/mL and the “MIC Enterococcus faecium (GC 4556)” value (Enterococcus sp.) was 64 µg/mL (≈ 62.3 µM). The “MIC Enterococcus faecium (GC 4557)” value (Enterococcus sp.) was 64 µg/mL (≈ 62.3 µM), the “MIC Enterococcus avium (GC 4558)” value (Enterococcus sp.) was 64 µg/mL (≈ 62.3 µM) and the “MIC Enterococcus faecalis (GC 6189)” value (Enterococcus sp.; strain GC 6189) was greater than 64 µg/mL. For the same compound, the “MIC Staphylococcus aureus (ATCC 29213)” value (Staphylococcus sp.; strain ATCC 29213; broth dilution, 18 hours at 35° C.) was 64 µg/mL (≈ 62.3 µM), the “MIC Staphylococcus aureus (GC 1131)” value (Staphylococcus sp.; strain GC 1131; broth dilution, 18 hours at 35° C.) was 64 µg/mL (≈ 62.3 µM) and the “MIC Staphylococcus aureus (GC 3051)” value (Staphylococcus sp.; strain GC 3051; broth dilution, 18 hours at 35° C.) was 64 µg/mL (≈ 62.3 µM). For the same compound, the “MIC Staphylococcus aureus (GC 3053)” value (Staphylococcus sp.; strain GC 3053; broth dilution, 18 hours at 35° C.) was 64 µg/mL (≈ 62.3 µM), the “MIC Staphylococcus aureus (GC 4541)” value (Staphylococcus sp.; strain GC 4541; broth dilution, 18 hours at 35° C.) was 64 µg/mL (≈ 62.3 µM) and the “MIC Staphylococcus aureus (GC 4542)” value (Staphylococcus sp.; strain GC 4542; broth dilution, 18 hours at 35° C.) was 64 µg/mL (≈ 62.3 µM). For the same compound, the “MIC Staphylococcus aureus-SMITH (GC 4543)” value (Staphylococcus sp.; strain GC 4543; broth dilution, 18 hours at 35° C.) was 64 µg/mL (≈ 62.3 µM), the “MIC Staphylococcus aureus (GC 4544)” value (Staphylococcus sp.; strain GC 4544; broth dilution, 18 hours at 35° C.) was 64 µg/mL (≈ 62.3 µM) and the “MIC Staphylococcus aureus (GC 4545)” value (Staphylococcus sp.; strain GC 4545; broth dilution, 18 hours at 35° C.) was 64 µg/mL (≈ 62.3 µM). The “MIC Staphylococcus haemolyticus (GC 4546)” value (Staphylococcus sp.; strain GC 4546; broth dilution, 18 hours at 35° C.) was 64 µg/mL (≈ 62.3 µM), the “MIC Coagulase Negative Staphylococcus (GC 4547)” value (Staphylococcus sp.; strain GC 4547; broth dilution, 18 hours at 35° C.) was 64 µg/mL (≈ 62.3 µM) and the “MIC Coagulase Negative Staphylococcus (GC 4548)” value (Staphylococcus sp.; strain GC 4548; broth dilution, 18 hours at 35° C.) was 64 µg/mL (≈ 62.3 µM). The “MIC Coagulase Negative Staphylococcus (GC 4549)” value (Staphylococcus sp.; strain GC 4549; broth dilution, 18 hours at 35° C.) was 32 µg/mL (≈ 31.1 µM), the “MIC Coagulase Negative Staphylococcus (GC 4551)” value (Staphylococcus sp.; strain GC 4551; broth dilution, 18 hours at 35° C.) was 64 µg/mL (≈ 62.3 µM) and the “MIC Coagulase Negative Staphylococcus (GC 6257)” value (Staphylococcus sp.; strain GC 6257; broth dilution, 18 hours at 35° C.) was 32 µg/mL (≈ 31.1 µM). For the same compound, the “MIC Streptococcus pneumoniae (ATCC 6301)” value (Streptococcus sp.; strain ATCC 6301) was 4 µg/mL (≈ 3.89 µM), the “MIC Streptococcus pneumoniae (GC 1894)” value (Streptococcus sp.; strain GC 1894) was 2 µg/mL (≈ 1.95 µM) and the “MIC Streptococcus pyogenes (GC 4563)” value (Streptococcus sp.; strain GC 4563) was 8 µg/mL (≈ 7.78 µM). For the same compound, the “MIC Streptococcus agalactiae (GC 4564)” value (Streptococcus sp.) was 16 µg/mL (≈ 15.6 µM) and the “MIC Streptococcus pneumoniae (GC 4565)” value (Streptococcus sp.) was 4 µg/mL (≈ 3.89 µM).

For CC(c1ccccc1)C1NC(=O)CNC(=O)C(CO)NC(=O)C(C(O)C2CNC(=N)N2C2OC(CO)C(O)C(O)C2O)NC(=O)C(C(O)C2CNC(=N)N2)NC(=O)C(Cc2ccc(O)c([N+](=O)[O-])c2)NC1=O (stereo not drawn) [Example 8, Cyclo[glycyl-β-methylphenylalanyl-3-nitrotyrosyl-3-(2-iminoimidazolidin-4-yl)seryl-3-(3-hexopyranosyl-2-iminoimidazolidin-4-yl)serylseryl]] (cyclo(G[ξPhe(βξ-Me)][Tyr(3-NO2)][ξEnduracididine(βξ-OH,4'ξ)][X1]S); configuration not given here), the “MIC Escherichia coli (ATCC 25922)” value (Escherichia coli) was greater than 128 µg/mL, the “MIC Escherichia coli (GC 4559)” value (Escherichia coli) was greater than 128 µg/mL and the “MIC Escherichia coli (GC 4560)” value (Escherichia coli) was greater than 128 µg/mL. The “MIC Enterococcus faecalis (ATCC 29212)” value (Enterococcus sp.) was greater than 128 µg/mL, the “MIC Enterococcus faecalis (GC 2242)” value (Enterococcus sp.) was greater than 128 µg/mL and the “MIC Enterococcus faecium (GC 2243)” value (Enterococcus sp.) was greater than 128 µg/mL. The “MIC Enterococcus faecalis (GC 4552)” value (Enterococcus sp.) was greater than 128 µg/mL, the “MIC Enterococcus faecalis (GC 4553)” value (Enterococcus sp.) was greater than 128 µg/mL and the “MIC Enterococcus faecalis (GC 4554)” value (Enterococcus sp.) was greater than 128 µg/mL. The “MIC Enterococcus faecium (GC 4556)” value (Enterococcus sp.) was greater than 128 µg/mL, the “MIC Enterococcus faecium (GC 4557)” value (Enterococcus sp.) was greater than 128 µg/mL and the “MIC Enterococcus avium (GC 4558)” value (Enterococcus sp.) was greater than 128 µg/mL. The “MIC Staphylococcus aureus (ATCC 29213)” value (Staphylococcus sp.; broth dilution, 18 hours at 35° C.; strain ATCC 29213) was greater than 128 µg/mL, the “MIC Staphylococcus aureus (GC 1131)” value (Staphylococcus sp.; broth dilution, 18 hours at 35° C.; strain GC 1131) was greater than 128 µg/mL and the “MIC Staphylococcus aureus (GC 4541)” value (Staphylococcus sp.; broth dilution, 18 hours at 35° C.; strain GC 4541) was greater than 128 µg/mL. The “MIC Staphylococcus aureus (GC 4542)” value (Staphylococcus sp.; broth dilution, 18 hours at 35° C.; strain GC 4542) was greater than 128 µg/mL, the “MIC Staphylococcus aureus-SMITH (GC 4543)” value (Staphylococcus sp.; broth dilution, 18 hours at 35° C.; strain GC 4543) was greater than 128 µg/mL and the “MIC Staphylococcus aureus (GC 4544)” value (Staphylococcus sp.; broth dilution, 18 hours at 35° C.; strain GC 4544) was greater than 128 µg/mL. The “MIC Staphylococcus aureus (GC 4545)” value (Staphylococcus sp.; broth dilution, 18 hours at 35° C.; strain GC 4545) was greater than 128 µg/mL, the “MIC Staphylococcus haemolyticus (GC 4546)” value (Staphylococcus sp.; broth dilution, 18 hours at 35° C.; strain GC 4546) was greater than 128 µg/mL and the “MIC Coagulase Negative Staphylococcus (GC 4547)” value (Staphylococcus sp.; broth dilution, 18 hours at 35° C.; strain GC 4547) was greater than 128 µg/mL. The “MIC Coagulase Negative Staphylococcus (GC 4548)” value (Staphylococcus sp.; broth dilution, 18 hours at 35° C.; strain GC 4548) was greater than 128 µg/mL, the “MIC Coagulase Negative Staphylococcus (GC 4549)” value (Staphylococcus sp.; broth dilution, 18 hours at 35° C.; strain GC 4549) was greater than 128 µg/mL and the “MIC Coagulase Negative Staphylococcus (GC 4551)” value (Staphylococcus sp.; broth dilution, 18 hours at 35° C.; strain GC 4551) was greater than 128 µg/mL. For the same compound, the “MIC Coagulase Negative Staphylococcus (ID-3941)” value (Staphylococcus sp.; broth dilution, 18 hours at 35° C.; strain ID-3941) was greater than 128 µg/mL, the “MIC Streptococcus agalactiae (GC 4564)” value (Streptococcus sp.) was greater than 128 µg/mL and the “MIC Streptococcus pneumoniae (GC 4565)” value (Streptococcus sp.) was greater than 128 µg/mL. For the same compound, the “MIC Streptococcus pyogenes (ID-3187)” value (Streptococcus sp.; strain ID-3187) was greater than 128 µg/mL.
